Where two headings read alike, the source gives them in different places. Square brackets hold non-standard residues; d marks the D form. Peptide text beside a SMILES is read from it.
Experiments:
[1] = In vitro proteolysis assay in human serum; format: in vitro ADME
Experimental: Ten μl of a 300 M solution of hGHRH (1-29)NH2 or of a GHRH analogue was solubilized in dimethylsulfoxide (DMSO) and incubated in one of the following conditions: a—190 μl serum (1/100 dilution in picopure water) from 2-month-old male Sprague Dawley rats, at 37° C. for 0, 8, 15, 30 or 60 min, in polypropylene tubes; b—190 μl of human healthy volunteer plasma (from Human Whole Blood Na EDTA, males, drug free (Algorithme Pharma Inc.); project: MTL-P2-155; Lot: MTLP2155-01, supplied by LAB Dev Int); and c—190 μl of human healthy volunteer pooled serum, Lot: X409 (supplied by LAB Dev Int), at 37° C. for 0, 60, 120, 180 or 420 min, in polypropylene tubes. Proteolysis was stopped by adding 800 μl of ice-cold stop buffer (potassium-phosphate buffer, acidified to pH 0.8 with trifluoroacetic acid (TFA) and boiling 5 min (rat serum only). After centrifugation (12000 g, 5 min, 4° C.) (rat serum only), serum-peptide mixtures were passed through a conditioned Sep-Pak C-18 cartridge to extract native GHRH or a GHRH analogue residual concentrations from serum proteins. The native GHRH or the analogue was eluted in 2 ml of 50% acetonitrile-0.01% TFA/50% 0.01% aqueous TFA. Two hundred μl of extracted peptide, representing 1 μg of GHRH or analogue at time 0, was quantified by analytical HPLC, using one μ-Bondapak C18 column (10 μm particle size, 0.39×15 cm) (rat serum) or two C18 column in series (human serum and plasma) and a binary solvent system composed of NaClO4 0.01 M, pH 2.5 and acetonitrile. A linear gradient from 30 to 60% acetonitrile over 45 min (rat serum) or 30 to 50% (human serum and plasma) was used.
More specifically, the values represent the mean, standard deviation and standard error from the mean of 3 to 7 experiments.

adult female rats = test: In vivo GH secretion after single IV or SC injection in female rats; design: species or system rat
Experimental: The ability of human GHRH analogue #5 (human [D-Ala^2, D-Tyr^10, D-Ala^15, Lys^22] GHRH (1-29)NH2 analogue) to stimulate GH secretion was studied in adult female rats (26-34 weeks at onset of treatment) and in a male Beagle dog.
Human GHRH analogue #5 in 0.9% sodium chloride for injection USP was administered once either by intravenous (IV) or subcutaneous (SC) injection to female rats followed by a 14-day observation period, as shown in Table 2. Prior to administration, all dosing formulations were filtered using a 0.22 μm filter to ensure sterility. The actual amount of GHRH analogue #5 administered was calculated and adjusted based on the animal's most recent body weight. Dosing started at approximately the same time each day, commencing at 9:00 am±30 minutes.
For pharmacodynamic investigations, blood samples (approximately 1.3 ml) were collected from 2 animals per group per time point (maximum 3 time points/animal) via a jugular venipuncture at the following time points: pre-dose, 4, 10, 15, 45 minutes and 5 hours post dosing. […]
Plasma GH was determined by Linco Diagnostic Services using their own kit.
Linco's Rat Growth Hormone radioimmunoassay kit (RIA) (RGH-45HK) is intended for the quantitative determination of Rat Growth Hormone in serum, plasma, and tissue culture media. […]

R2 (60 min): Relative resistance to in vitro proteolysis in comparison with hGHRH(1-29)NH2 ([1]; 60-min incubation in human serum): 1.55 ± 0.04 | R2 (180 min): Relative resistance to in vitro proteolysis in comparison with hGHRH(1-29)NH2 ([1]; 180-min incubation in human serum): 2.93 ± 0.87 | Mean residual amount ([1]; human serum, incubation time 0 min): 100% | Mean residual amount ([1]; human serum, incubation time 420 min): 50% | remaining at 3 h, 15 µM ([1]; human, pooled human serum, 180-min incubation in human serum, read-out: Residual peptide concentration (180 min)): 62 ± 2% | remaining at 1 h, 15 µM ([1]; human, pooled human serum, human serum, incubation time 60 min, read-out: Mean residual amount): 88% | remaining at 2 h, 15 µM ([1]; human, pooled human serum, human serum, incubation time 120 min, read-out: Mean residual amount): 76% | remaining at 3 h, 15 µM ([1]; human, pooled human serum, human serum, incubation time 180 min, read-out: Mean residual amount): 63% | remaining at 7 h, 15 µM ([1]; human, pooled human serum, human serum, incubation time 420 min, read-out: Mean residual amount): 50%
SMILES: CC[C@H](C)[C@H](NC(=O)[C@H](C)NC(=O)[C@H](CC(=O)O)NC(=O)[C@@H](C)NC(=O)[C@@H](N)Cc1ccc(O)cc1)C(=O)N[C@@H](Cc1ccccc1)C(=O)N[C@H](C(=O)N[C@@H](CC(N)=O)C(=O)N[C@@H](CO)C(=O)N[C@H](Cc1ccc(O)cc1)C(=O)N[C@@H](CCCNC(=N)N)C(=O)N[C@@H](CCCCN)C(=O)N[C@H](C(=O)N[C@@H](CC(C)C)C(=O)N[C@H](C)C(=O)N[C@@H](CCC(N)=O)C(=O)N[C@@H](CC(C)C)C(=O)N[C@@H](CO)C(=O)N[C@@H](C)C(=O)N[C@@H](CCCNC(=N)N)C(=O)N[C@@H](CCCCN)C(=O)N[C@@H](CCCCN)C(=O)N[C@@H](CC(C)C)C(=O)N[C@@H](CCC(N)=O)C(=O)N[C@@H](CC(=O)O)C(=O)N[C@H](C(=O)N[C@@H](CCSC)C(=O)N[C@@H](CO)C(=O)N[C@@H](CCCNC(=N)N)C(N)=O)[C@@H](C)CC)C(C)C)[C@@H](C)O [GHRH analogue #5, [D-Ala^2, D-Tyr^10, D-Ala^15, Lys^22] hGHRH(1-29)-NH2] (H-Y[dA]DAIFTNS[dY]RKVL[dA]QLSARKKLQDIMSR-NH2)
in vivo potency compared with the natural 44 amino acid GHRH (adult female rats; in vivo, conclusion): at least two times more potent | GH secretion compared with response to natural hGHRH(1-44)NH2 (adult female rats; rat, pulse amplitude and AUC): twice larger

— patent US20090023646A1, “GHRH analogues” (Centre Hospitalier de L'Universite de Montreal (CHUM), priority 2002, published 2009)
